This note sets out measurements from patent publication US11566233B2, “Three-dimensional in vitro lung model, process for preparing said model, and its use for determining and /or predicting the sensitizing effects of inhalable products” (LUXEMBOURG INSTITUTE OF SCIENCE AND TECHNOLOGY, priority 2016, dated 2023).

In data set [1] the test system is THP-1 cells in the tetraculture lung model. The experiment in a line: Flow cytometry of cell surface marker expression on THP-1 cells in the tetraculture lung model. The format is cell-based, human. Particulars: 24 h exposure, compared to control. Here is the method:
24 h and 48 h after exposure to the Vitrocell Cloud, THP-1 DC were recovered in the medium in the well. After centrifugation for 5 minutes at 300 g, cells were washed with PBS and staining was performed using antibodies listed in table 1 below (following the manufacturer's recommended dilutions) and the corresponding isotype control to determine the unspecific binding of the antibody and ensure the observed staining is due to specific binding rather than an artifact.
Relative Fluorescence Intensity (RFI) was used as an indicator of OX40L, IL7ra, CD40 and CD86 and CD54 expression and was calculated by the following formula I: […]
(§1) To measure the expression of cell surface markers and the release of different cytokines, the cells of inserts prepared according to example 1 above were exposed to the CV75 or, when it was not possible to reach 75% of viability, cells were exposed to the maximum of solubility of the compounds.
(§2) After 24 h and 48 h, THP-1 cells were recovered, stained and analysed using a flow cytometer according to the protocol detailed in example 2 above. Supernatants were recovered for cytokines measurements.

For data set [2], the system named is THP-1 cells in monoculture. The experiment in a line: Cell surface marker expression on THP-1 cells in monoculture, submerged conditions (h-CLAT reproduction). The format is cell-based, human. As to conditions: 24 h exposure. The source says: In parallel, THP-1 cells were exposed in submerged conditions in monoculture in order to reproduce the data obtained using the h-CLAT (human cell line activation test) assay. The h-CLAT assay is based on the property of chemicals to activate dendritic cells, property which is common to both skin and respiratory sensitizers. The h-CLAT is an in vitro model validated at the European level (ECVAM validation).
On a comparative purpose, the expression of CD86 and CD54 cell surface markers were also evaluated in the h-CLAT. It is currently recommended to use the h-CLAT to assess the skin sensitizing potential of chemicals. As skin and lung share the DC activation property, h-CLAT may be considered to be used to assess also the respiratory sensitizing potential of chemicals. To remind, there is no validated models to assess respiratory sensitization available on the market yet.
As different antibodies, fluorochromes and equipment were used to measure the CDs expression, threshold level obtained in literature on the h-CLAT could not be compared to those measured in this example.

Data set [3] concerns tetraculture in vitro lung model. The experiment in a line: Cytokines released in the tetraculture in vitro lung model. The format is cell-based, human. Also noted: key: ?: indicates a decrease of cytokine release compared to the vehicle control; ?: indicates an increase of cytokine release compared to the vehicle control; =: indicates no change observed between exposure and the vehicle control; ?: indicates a decrease of cytokine release compared to the vehicle control; ?: indicates an increase of cytokine release compared to the vehicle control. The procedure:
as §1, §2
Table 2 below gives a summary of the results obtained for all cytokines measured, wherein, ? indicates a decrease of cytokine release compared to the vehicle control, ? indicates an increase of cytokine release compared to the vehicle control and =indicates no change observed between exposure and the vehicle control: […]

For data set [4], the system named is THP-1 cells in monoculture. The data set can be described thus: Viability of THP-1 cells in monoculture in submerged conditions. The data set is classed as cell-based, human. Particulars: 24 h exposure, up to maximum of solubility in medium containing 0.2% of DMSO. Here is the method:
(§3) FIGS. 11A and 11B are diagrams showing viability of THP-1 cells after 24 h exposure to PA (FIG. 11A) and TMA (FIG. 11B) in monoculture in submerged conditions. In this figure, the highest tested concentrations represent the maximum of solubility of the compounds in medium containing 0.2% of DMSO.

Data set [5] is described as follows: Solubility in medium containing 0.2% of DMSO. The data set is classed as physicochemical. The procedure:
as §3

The subject of data set [6] is tetraculture lung model (A549, EA.hy926, THP-1, Mϕ-THP-1). The experiment in a line: Alamar Blue viability of the tetraculture lung model after Vitrocell Cloud exposure at the air-liquid interface. As to conditions: 24 h and 48 h after exposure.
Method: (§4) Example of exposure of the inserts is performed in a Vitrocell® Cloud device (Waldkirch, Germany), previously cleaned under sterile conditions, and maintained at 37° C. The inserts are placed into the device. A cloud, from 200 to 500 μL of the product to be tested) is then distributed homogenously inside the chamber and starts to settle on the surface. After about 10 to 30 minutes (depending on the injected product), the cloud is settled by single droplet sedimentation. The concentration which is deposited on the insert can be calculated in g/cm^2.
(§5) Inserts prepared according to example 1 were exposed to chemical compounds and to positive controls using the Vitrocell® Cloud system (Vitrocell, Waldkirch, Germany). All compounds were diluted in a 1/1(v/v) solution of sterile saline solution and PBS.
(§6) Inserts were exposed to a range of concentrations to chemical respiratory irritants and sensitizers in order to determine first the viability of the tissue using the Alamar Blue assay. […] Upon entering cells, resazurin is reduced to pink highly fluorescent resorufin. Viable cells continuously convert resazurin to resorufin. The fluorescence is proportional to cell viability.
(§7) Following 24 h and 48 h exposure to the compounds through the Vitrocell cloud, cells were incubated for 1 hour to 400 μM of Alamar Blue diluted in Coculture 1% medium.
(§8) Viability was assessed using the Alamar Blue assay 24 h and 48 h after exposure according to the protocol detailed in example 2 above.
(§9) The concentration leading to 25% of cytotoxicity (meaning 75% of viability: CV75) relatively compared to the vehicle control was determined using the graphs presented in example 2.
The test system is the same in data set [7].
Method: as §4, §5, §6, §7, §8, §9

Like-named read-outs stand apart in the source and are kept apart here.

Regarding `C=CC=O` [Acrolein], in data set [1], the “expression of cell surface marker CD54 on THP-1 cells” value was “no increase”, the “expression of cell surface marker CD86 on THP-1 cells” value is recorded as “no increase” and the “expression of cell surface marker IL7ra on THP-1 cells” value is recorded as “decrease”. For the same molecule, the “expression of CD54 on THP-1 cells” value in data set [2] was “increase”. Besides, the “RANTES release compared to the vehicle control” value in data set [3] (24 h) is listed as “=”. Besides, the “MCP-1 release compared to the vehicle control” value in data set [3] (48 h) was “=”.

Consider `O=C1OC(=O)c2ccccc21` [PA, Phthalic Anhydrid], for which, in data set [1], the “expression of cell surface marker CD54 on THP-1 cells” value was “Increases” and the “expression of cell surface marker CD86 on THP-1 cells” value is “Increases”. Besides, in data set [3] (24 h), the “IL-7 release compared to the vehicle control” value is “=” and the “MCP-1 release compared to the vehicle control” value was “=”. For the same molecule, the “IL-7 release compared to the vehicle control” value in data set [3] (48 h) was “=”. Further, in data set [4], the “cytotoxicity of THP-1 cells” value was “not possible to reach any cytotoxity”. In addition, in data set [5], the solubility result is reported as “low solubility”. For the same molecule, in data set [6], the “cell viability of the alveolar tissue model (in words)” value (“cell viability” for short) is recorded as “decrease in viability”.

`O=C(O)c1ccc2c(c1)C(=O)OC2=O` [TMA, Trimellitic Anhydride]: in data set [1], the “expression of cell surface marker CD54 on THP-1 cells” value is reported as “Increases” and the “expression of cell surface marker CD86 on THP-1 cells” value was “Increases”. Moreover, in data set [2], the “expression of CD86 on THP-1 cells” value is reported as “lower than the vehicle control”. In addition, in data set [3] (24 h), the “IL-7 release compared to the vehicle control” value is listed as “=” and the “MCP-1 release compared to the vehicle control” value is given as “=”. For the same molecule, in data set [3] (48 h), the “IL-7 release compared to the vehicle control” value is reported as “=”, the “IL-10 release compared to the vehicle control” value is “=” and the “MCP-1 release compared to the vehicle control” value is “=”. Moreover, the “cytotoxicity of THP-1 cells” value in data set [4] is on record as “not possible to reach any cytotoxity”. The solubility entry in data set [5] is “low solubility”. Further, the “cell viability” value in data set [6] was “decrease in viability”.

B1: Bet v1: additional known protein sensitizer; important protein allergen of pollen (protein, UniProt P15494 2-160, looked up)
Major pollen allergen Bet v …: GVFNYETETTSVIPAARLFKAFILDGDNLFPKVAPQAISSVENIEGNGGPGTIKKISFPEGFPFKYVKDRVDEVDHTNFKYNYSVIEGGPIGDTLEKISNEIKIVATPDGGSILKISNKYHTKGDHEVKAEQVKASKEMGETLLRAVESYLLAHSDAYN
For B1, the “cell viability” value in data set [7] is “No effect”.
